From patent publication US12091387B2, “Quinoline cGAS antagonist compounds” (IMMUNESENSOR THERAPEUTICS, INC., priority 2022, dated 2024)

Tests used:
[1] = tested on: cGAS activity in reporter THP1 cell line; test: Cellular assay to measure cGAS activity (ISRE-Gaussia luciferase reporter THP1 cells, ISD transfection); assay type: cell-based; conditions: Homo sapiens, THP-1, 2 μg/mL ISD transfection, 16 hours, luciferase luminescence
Experimental: Cellular assay to measure cGAS activity: Reporter THP1 cell line harboring a gene encoding Gaussia Luciferase under the control of 5 tandem repeats of interferon-stimulated response elements (ISRE) fused to an ISG54 minimal promoter was used to test inhibition of cGAS activity by synthetic compounds in human cells. These cells were plated on 96-well plates at 0.3×10^6/well and incubated with serial dilutions of compounds or DMSO for 5 min, followed by transfection of 2 μg/mL of ISD (Interferon Stimulatory DNA, a 45 bp DNA oligo) or mock transfected using lipofectamine 2000 (Life Technology) method, according to manufacturer's instructions. 16 hours later, 15 μL of the media from each well was transferred to a new plate, 50 μL of solution containing 50 mM Hepes-NaOH, pH 6.5, 50 mM NaCl, 10 mM EDTA, 1 μM of coeleanterazine is added to each well and luminescence is measured immediately. Fold increase in luminescence compared to mock transfection was plotted against concentrations of each compound, and IC50 is calculated using Graphpad. To evaluate the specificity of a compound, the same procedure is performed except that cells are transfected with 2 μg/mL […] or infected with Sendai Virus (SeV) at 50 Unit/mL, which are known to activate the RIG-I-MAVS pathway. A specific inhibitory compound should inhibit interferon induction by DNA but have minimal effect on poly(I:C) or Sendai virus induced interferon reporter gene expression.
The letter codes for cGAS IC50 include: A (<2 μM); B (2-10 μM); C (>10 μM).

[2] = molecular target: T1, recombinant human cGAS (aa147-522) (Homo sapiens, UniProt Q8N884); test: In vitro inhibition assay of cGAS activity (KinaseGlo, ATP consumption); assay type: biochemical; conditions: Herring testis DNA, 6.6 μM ATP, 0.1 mM GTP, 37° C. 20 minutes
T1 construct: recombinant human cGAS (aa147-522); His6-SUMO (N, cleaved yes); made in house; host or cells: E. coli BL21/pLys
Experimental: Expression and Purification of Recombinant cGAS Protein: cDNA encoding full-length or amino acids 147-520 of human cGAS was inserted into a modified pET28a vector containing an in-frame His6-SUMO tag. The E. coli strain BL21/pLys harboring the plasmid was induced with 0.5 mM IPTG at 18° C. overnight. His6-SUMO tag was removed by a SUMO protease digestion following purification of the His6-SUMO-cGAS as described previously (Sun et al, 2013, Science 339, 786).
In vitro inhibition assay of cGAS activity: A 60 μL mixture containing 20 mM Tris-Cl, pH 7.5, 5 mM MgCl2, 0.2 mg/mL BSA, 0.01 mg/mL Herring testis DNA, 6.6 μM ATP, 0.1 mM GTP, 1.5 μg/mL of recombinant human cGAS (aa147-522) and serial dilutions of a test compound in DMSO is added to a 96-well plate and incubated at 37° C. for 20 minutes. At the end of reaction, 40 μL of KinaseGlo Max (Promega) is added and chemiluminescence was measured with a luminometer. Inhibitory effect of a compound is evaluated by plotting percentage of ATP consumption against logarithm of compound concentrations. IC50 value is calculated using GraphPad Prism 8 (GraphPad Software, Inc.).
The letter codes for cGAS IC50 include: A (<2 μM); B (2-30 μM); C (>30 μM).

T1 sequence (Q8N884 147-522): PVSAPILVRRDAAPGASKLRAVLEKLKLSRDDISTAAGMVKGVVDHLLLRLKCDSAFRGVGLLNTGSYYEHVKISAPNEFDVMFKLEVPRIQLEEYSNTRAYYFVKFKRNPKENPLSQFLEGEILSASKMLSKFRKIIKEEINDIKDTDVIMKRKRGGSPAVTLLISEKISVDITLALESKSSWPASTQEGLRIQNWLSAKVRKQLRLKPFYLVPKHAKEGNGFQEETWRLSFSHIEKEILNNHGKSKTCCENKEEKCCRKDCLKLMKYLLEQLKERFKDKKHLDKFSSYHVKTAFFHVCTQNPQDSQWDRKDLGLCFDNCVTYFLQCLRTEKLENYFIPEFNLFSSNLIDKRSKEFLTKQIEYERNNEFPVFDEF

| SMILES | IC50 [1] [nM] | IC50 [2] [nM] |
| --- | --- | --- |
| O=C(O)CCOC[C@@H]1CCCN1c1cc(-c2ncn[nH]2)c2ccc(Br)cc2n1 [I-901, (S)-3-((1-(7-bromo-4-(4H-1,2,4-triazol-3-yl)quinolin-2-yl)pyrrolidin-2-yl)methoxy)propanoic acid] | > 10000 | 2000 to 30000 |
| O=C(O)CCOC[C@@H]1CCCN1c1cc(-c2cnoc2)c2ccc(Cl)c(Cl)c2n1 [I-902] | 2000 to 10000 | < 2000 |
| O=C(O)CCOC[C@@H]1CCCN1c1cc(-c2cnco2)c2ccc(Br)cc2n1 [I-903, (S)-3-((1-(7-bromo-4-(oxazol-5-yl)quinolin-2-yl)pyrrolidin-2-yl)methoxy)propanoic acid] | 2000 to 10000 | < 2000 |
| O=C(O)CCOC[C@@H]1CCCN1c1cc(-c2cocn2)c2ccc(Cl)c(Cl)c2n1 [I-904] | > 10000 | > 30000 |
| O=C(O)CCOC[C@@H]1CCCN1c1cc(-c2ccsc2)c2ccc(Cl)c(Cl)c2n1 [I-905] | > 10000 | > 30000 |
| O=C(O)CCOC[C@@H]1CCCN1c1cc(-c2cscn2)c2ccc(Cl)c(Cl)c2n1 [I-908] | > 10000 | > 30000 |
| O=C(O)CCOC[C@@H]1CCCN1c1cc(-c2cccc(CO)c2)c2ccc(Cl)c(Cl)c2n1 [I-909] | > 10000 | > 30000 |
| O=C(O)CCOC[C@@H]1CCCN1c1cc(-c2cccc(O)c2)c2ccc(Cl)c(Cl)c2n1 [I-910] | > 10000 | > 30000 |
| COc1ccc(-c2cc(N3CCC[C@H]3COCCC(=O)O)nc3c(Cl)c(Cl)ccc23)cc1 [I-911] | > 10000 | > 30000 |
| COc1cccc(-c2cc(N3CCC[C@H]3COCCC(=O)O)nc3c(Cl)c(Cl)ccc23)c1 [I-912] | > 10000 | > 30000 |
| O=C(O)CCOC[C@@H]1CCCN1c1cc(-c2ccc(F)cc2)c2ccc(Cl)c(Cl)c2n1 [I-913] | > 10000 | > 30000 |
| O=C(O)CCOC[C@@H]1CCCN1c1cc(-c2cccc(F)c2)c2ccc(Cl)c(Cl)c2n1 [I-914] | > 10000 | 2000 to 30000 |
| O=C(O)CCOC[C@@H]1CCCN1c1cc(-c2cccnc2)c2ccc(Cl)c(Cl)c2n1 [I-915] | > 10000 | > 30000 |
| O=C(O)CCOC[C@@H]1CCCN1c1cc(-c2ccncc2)c2ccc(Cl)c(Cl)c2n1 [I-916] | > 10000 | > 30000 |
| O=C(O)CCOC[C@@H]1CCCN1c1cc(-c2cncnc2)c2ccc(Cl)c(Cl)c2n1 [I-917] | > 10000 | < 2000 |
| O=C(O)CCOC[C@@H]1CCCN1c1cc(-c2ccnnc2)c2ccc(Cl)c(Cl)c2n1 [I-918] | > 10000 | > 30000 |
| O=C(O)CCOC[C@@H]1CCCN1c1cc(N2CCOCC2)c2ccc(Cl)c(Cl)c2n1 [I-919] | > 10000 | > 30000 |
| O=C(O)CCOC[C@@H]1CCCN1c1cc(N2CCNCC2)c2ccc(Cl)c(Cl)c2n1 [I-920] | > 10000 | > 30000 |
| CN1CCN(c2cc(N3CCC[C@H]3COCCC(=O)O)nc3c(Cl)c(Cl)ccc23)CC1 [I-921] | > 10000 | > 30000 |
| O=C(O)CCOC[C@@H]1CCCN1c1cc(C2=CCNC2)c2ccc(Cl)c(Cl)c2n1 [I-922] | > 10000 | > 30000 |
| O=C(O)CCOC[C@@H]1CCCN1c1cc(C2=CNCC2)c2ccc(Cl)c(Cl)c2n1 [I-923] | > 10000 | 2000 to 30000 |
| O=C(O)CCOC[C@H]1CCCN1c1cc(-n2cncn2)c2cc(Cl)c(Br)cc2n1 [I-924] | > 10000 | 2000 to 30000 |
| COC(=O)[C@@H]1[C@@H](O)CCN1c1cc(-n2cncn2)c2cc(Br)c(Cl)c(Cl)c2n1 [I-933] | < 2000 | < 2000 |
| O=C(O)[C@@H]1[C@@H](O)CCN1c1cc(-n2cncn2)c2cc(Cl)c(Br)cc2n1 [I-934] | > 10000 | < 2000 |
| O=C(O)CCOC[C@@H]1CCN(c2cc(-n3cncn3)c3cc(Cl)c(Br)cc3n2)C1 [I-935] | < 2000 | < 2000 |
| COC(=O)[C@@H]1[C@@H](O)CCN1c1cc(-n2cncn2)c2cc(Cl)c(Br)cc2n1 [I-936] | < 2000 | < 2000 |
| O=C(O)CCOC[C@@H]1CCN(c2cc(-n3cncn3)c3cc(Br)c(Cl)c(Cl)c3n2)C1 [I-937] | < 2000 | < 2000 |
| CCN(CCOCCC(=O)O)c1cc(-n2cncn2)c2cc(Br)c(Cl)c(Cl)c2n1 [I-938] | < 2000 | < 2000 |

The remaining lines, values ahead:

| IC50 [1] [nM] | IC50 [2] [nM] | SMILES |
| --- | --- | --- |
| < 2000 | < 2000 | O=C(O)CCOC[C@@H]1CCCN1c1cc(-n2cncn2)c2ccc(Cl)c(Cl)c2n1 [I-892] |
| < 2000 | < 2000 | O=C(O)CCOC[C@@H]1CCCN1c1cc(-n2cncn2)c2cc(Cl)c(Br)cc2n1 [I-893] |
| < 2000 | < 2000 | Cc1c(Br)ccc2c(-n3cncn3)cc(N3CCC[C@H]3COCCC(=O)O)nc12 [I-894] |
| < 2000 | < 2000 | O=C(O)CCOC[C@@H]1CCCN1c1cc(-n2cncn2)c2cc(Br)c(Cl)c(Cl)c2n1 [I-895] |
| < 2000 | < 2000 | O=C(O)CCOC[C@@H]1CC2(CC2)CN1c1cc(-n2cncn2)c2cc(Cl)c(Br)cc2n1 [I-896] |
| < 2000 | < 2000 | O=C(O)CCOC[C@@H]1CC2(CC2)CN1c1cc(-n2cncn2)c2cc(Br)c(Cl)c(Cl)c2n1 [I-897] |
| < 2000 | < 2000 | O=C(O)CCOC[C@@H]1CC2(CC2)CN1c1cc(-n2cncn2)c2ccc(Cl)c(Cl)c2n1 [I-898] |
| < 2000 | < 2000 | O=C(O)CCOC[C@@H]1CCCN1c1cc(-c2cnn[nH]2)c2ccc(Cl)c(Cl)c2n1 [I-899, (S)-3-((1-(7,8-dichloro-4-(1H-1,2,3-triazol-4-yl)quinolin-2-yl)pyrrolidin-2-yl)methoxy)propanoic acid] |
| < 2000 | < 2000 | O=C(O)CCOC[C@@H]1CCCN1c1cc(-n2ccnn2)c2ccc(Cl)c(Cl)c2n1 [I-900, (S)-3-((1-(7,8-dichloro-4-(1H-1,2,3-triazol-1-yl)quinolin-2-yl)pyrrolidin-2-yl)methoxy)propanoic acid] |
| < 2000 | < 2000 | O=C(O)CCOC[C@@H]1CCCN1c1cc(-c2cnsc2)c2ccc(Cl)c(Cl)c2n1 [I-906] |
| < 2000 | < 2000 | O=C(O)CCOC[C@@H]1CCCN1c1cc(-c2cncs2)c2ccc(Cl)c(Cl)c2n1 [I-907] |
| < 2000 | < 2000 | O=C(O)CCOC[C@H]1CCCN1c1cc(-n2cncn2)c2cc(Br)c(Cl)c(Cl)c2n1 [I-925] |
| < 2000 | < 2000 | O=C(O)CCOC[C@H]1CC2(CC2)CN1c1cc(-n2cncn2)c2cc(Br)c(Cl)c(Cl)c2n1 [I-926] |
| < 2000 | < 2000 | O=C(O)CCOC[C@@H]1C[C@@H]2C[C@@H]2N1c1cc(-n2cncn2)c2cc(Cl)c(Br)cc2n1 [I-927] |
| < 2000 | < 2000 | C[C@H]1C[C@@H](COCCC(=O)O)N(c2cc(-n3cncn3)c3cc(Cl)c(Br)cc3n2)C1 [I-928] |
| < 2000 | < 2000 | O=C(O)CCOC[C@@H]1C[C@H](C(F)(F)F)CN1c1cc(-n2cncn2)c2cc(Cl)c(Br)cc2n1 [I-929] |
| < 2000 | < 2000 | O=C(O)CCOC[C@@H]1C[C@@H]2C[C@@H]2N1c1cc(-n2cncn2)c2cc(Br)c(Cl)c(Cl)c2n1 [I-930] |
| < 2000 | < 2000 | O=C(O)CCOC[C@@H]1CCCN1c1cc(-n2cncn2)c2cc(Cl)c(Cl)cc2n1 [I-931] |
| < 2000 | < 2000 | O=C(O)CCOC[C@@H]1CCCN1c1cc(-n2cncn2)c2c(Cl)c(Cl)ccc2n1 [I-932] |
